Usually IC50 stands for the midpoint of a concentration-inhibition curve. Read a low IC50 as higher potency. As usually defined, the MIC is the lowest concentration that inhibits growth of the organism.

Results on four substances are retold here after US7091185B2, “Periodic antimicrobial peptides” (Dow Global Technologies Inc., priority 2003, dated 2006).

For one data set, the system named is E. coli ATCC 2592. As to conditions: ATCC 2592.
Another data set relates to P. aeruginosa ATCC 10145. As to conditions: ATCC 10145.
For data set [1], the system named is S. aureus (methicillin resistant) ATCC 33591.
In the next data set the test system is C. albicans 10231. The format is cell-based. As to conditions: 10231. Here is the method: (§1) The MIC and IC50 values were determined by a broth microdilution method according to guidelines of the National Committee for Clinical Laboratory Standard as follows: In 96-well tissue culture plates, a fixed volume of bacterial suspension in 2× broth (as defined below) was added to the mixtures or individual compounds dispensed at concentrations varying from 1,000 to 1 μg/ml derived from serial two-fold dilutions in sterile water. The bacteria tested were P. aeruginosa American Type Culture Collection Number (ATCC) 10145, E. coli ATCC 2592, and S. aureus (methicillin reseistant) ATTC 33591.
(§2) The plates were incubated overnight, and the relative percent growth determined by optical density at 620 nm (OD620) using a TITERTEK MULTISKAN PLUS™. […] IC50 values were calculated using a sigmoidal curve fitting software program (GRAPHPAD,™ ISI Software,™ San Diego, Calif.). All samples were tested in duplicate and each assay was repeated at least twice. In the following table, KFAK is the repeat unit and multimers of KFAK were tested. IC50 and MIC are reported in μg/ml.
(§3) Because the antibacterial activity of the periodic peptides was so promising, further experiments were performed to determine if the periodic peptides also had antifungal activity. The experimental design was similar to that above, with accommodation made for fungal growth requirements, including the use of Sabouraud Dextrose Broth (SDB) and Sabouraud Dextrose Agar (SDA) slants.

Another data set relates to Cr. Neoformans 32045. The data set is classed as cell-based. Here is the method:
as §1, §2, §3

Another data set in a line: Red blood cell toxicity. The format is cell-based. As to conditions: red blood cells (RBC).
The subject of the next data set is Red blood cells (RBC). Kind of data set: Red blood cell toxicity. The format is cell-based.
The test system of the next data set is HeLa cell line. Nature of the data set: HeLa MTS cellular reduction toxicity assay. As to conditions: for TX50: 24 h, MTS. The data set is classed as cell-based. The method, then: The RBC protocol was from Blondelle (2000) and is described generally as follows: The toxicity toward the HeLa cell line was determined using a MTS (3-(4-5-dimethylthiazol-2-yl)-5-(3carboxymethoxyphenyl)-2-(4-sulfophenyl)-2H-tetrazolium, sodium salt) cellular reduction assay. MTS (2 mg/mL) was prepared in Dulbecco PBS (pH 7.35), filtered, aliquoted and stored at minus 20° C. In 96 well flat bottomed plates, cell suspensions (250 μL of 6×10^4 cell/mL in each well) were incubated for 48 h at 37° C. (5% CO2 incubator). The peptides (50 μL) were then added to the cell monolayer (following aspiration of the media from each well and addition of 50 μL of Dulbecco's Modified Eagles Medium) at varying concentrations derived from serial 2-fold dilutions, and the plates incubated for 24 h at 37° C. (5% CO2 incubator). Proliferation was then determined by adding a solution of phenazine methosulfate (PMS: 0.92 mg/mL in DPBS) to MTS at a 1:20 ration just prior to the assay. Twenty microliters MTS-PMS solution were added to each well and the plates incubated for 1 h at 37° C. (5% CO2 incubator). The relative percent toxicity was determined by comparing the absorbance at 490 nm of each peptide to the absorbance of cells without peptide. The TX50 (concentration required for 50% toxicity) was calculated using a sigmoidal curve fitting software (Graphpad Prism).

The next data set has as its system P. aeruginosa ATCC 15442. Kind of data set: HMARQ biocidal kill activity. The format is cell-based. As to conditions: P. aeruginosa ATCC 15442 (gram−). The method, then:
(§4) Biocide efficacy protocols were improved by reducing sample size, organizing the test material into an array format, implementing most probable number (MPN) quantitation and using multi-channel liquid handling equipment. We call the new method “high-throughput microanalysis and rapid quantitation” or “HMARQ.” HMARQ is directly applicable to current industrial efficacy tests such as multi-cycle preservation challenge or time course disinfection tests.
(§5) HMARQ is performed in a high throughput plate, such as 96-well microtiter plates. Typical sample volumes have been reduced down to 200 to 300 μL, but can be reduced further if desired. In these samples, no more than 10% of the total volume will be composed of the biocide and organism solution, and all non-matrix additions are normalized for all samples.
(§6) The sample matrix is first inoculated with the desired concentration of microorganisms. Inoculated sample matrix is then added to the 96-well assay block containing the biocide(s) under study. Each sample block contains biocide treated samples and untreated control samples (lacking biocide). Once the samples are prepared, the entire block of samples is mixed by vortexing until each sample is homogenous. In general, the study starts once mixing is complete, and samples are removed as required for the analysis. When Kill Time testing (rate of biocide activity) is performed, the microorganisms are added after biocide addition to the samples, allowing for rapid mixing and analysis.
(§7) Bacterial concentration (CFU/mL) is determined using the most probable number method (MPN). The contaminated solution is serially diluted until the “no growth” endpoint is reached. The endpoint represents the MPN and is expressed in units of the bacterial concentration. A serial 1:10 dilution will yield a bacterial concentration resolution of 1 log and the log reduction is determined by comparing the concentration of organisms in a treated sample to the concentration of organisms in untreated samples. For example, if a sample requires four 1:10 dilutions before bacterial growth is lost then the MPN for bacterial concentration in the sample is less than or equal to 1×10^4 CFU/mL (1E4). […] This method of enumeration is generally applicable to all non-filamentous microorganisms.
(§8) Media included Tryptic Soy Broth (TSB) for bacteria and Sabouraud Dextrose Broth (SDB) for fungi. These are available commercially and prepared according to the manufacturers instructions. Indicator medium was TSB/R for bacteria and SDB/R for fungi. These were made by addition of 50 μM filter sterilized Resazurin to the sterilized and cooled medium. Tryptic Soy agar plates (TSA) and SDA slants were used to provide inoculant for bacterial and fungal cultures. The indicator dye appeared pink or white when bacterial growth was present.
(§9) Using the HMARQ test described above, periodic peptides were generated and tested for Kill Activity. In this experiment, a broader range of peptidezs were tested for activity. Units are expressed as ppm (μg/mL) needed for 3.5 log kill at 15 min or 24 hour and the results are shown below.

For another data set, the system named is Staph. aureus ATCC 6538. Kind of data set: HMARQ biocidal kill activity. The data set is classed as cell-based. As to conditions: Staph. aureus ATCC 6538 (gram+). The method, then: as §4, §5, §6, §7, §8, §9
Setting [2] is: RBCs, concentration required for 50% toxicity, read-out: TX50.
[3] abbreviates: S. aureus (methicillin resistant) 33591, gram+.

Read-outs that look alike come from different tables or passages of the source. Where no end group is shown, it is not given here.

“H-FKAFKAFKAFKAFKAFKAFKAFKA-OH [FKA (8), FKA FKA FKA FKA FKA FKA FKA FKA]”: the IC50 in the data set with E. coli ATCC 2592 was 7 µg/mL; in the data set on P. aeruginosa ATCC 10145, 19 µg/mL; in data set [1] (ATCC 33591), 74 µg/mL; in the data set with C. albicans 10231, 199 µg/mL; with Cr. Neoformans 32045, 3.9 µg/mL. In addition, the MIC in the data set with E. coli ATCC 2592 was 16 to 32 µg/mL; against P. aeruginosa ATCC 10145 it was 25 µg/mL; in data set [1] (ATCC 33591), greater than 500 µg/mL; against C. albicans 10231, 250 to 500 µg/mL; in the data set with Cr. Neoformans 32045, 16 to 32 µg/mL. In “Red blood cell toxicity” (setting [2]), the HC50 at 24 h was greater than 500 µg/mL. For the same substance, the “% kill at 250 μg/ml” value in the data set on Red blood cells (RBC) was determined as 10%. For the same substance, in the data set with HeLa cell line, the “% kill at 500 μg/ml” value came to 60.4%. Besides, the TX50 in the data set with HeLa cell line is greater than 500 µg/mL. For the same substance, the “ppm needed for 3.5 log kill at 15 min” value in the data set with P. aeruginosa ATCC 15442 is recorded as 125 ppm; with Staph. aureus ATCC 6538, 8 ppm. The “ppm needed for 3.5 log kill at 24 hr” value with P. aeruginosa ATCC 15442 was determined as 16 ppm; with Staph. aureus ATCC 6538, 125 ppm.
Turning to “H-FAKKFAKKFAKKFAKKFAKKFAKK-OH [FAKK (6), FAKK FAKK FAKK FAKK FAKK FAKK]”, the IC50 was 11 µg/mL with E. coli ATCC 2592; 21 µg/mL in the data set with P. aeruginosa ATCC 10145; 108 µg/mL in data set [1] (ATCC 33591); 110 µg/mL in the data set on C. albicans 10231; 7.6 µg/mL in the data set on Cr. Neoformans 32045. Also, the MIC was 17 to 32 µg/mL against E. coli ATCC 2592; 62 µg/mL with P. aeruginosa ATCC 10145; greater than 250 µg/mL in data set [1] (ATCC 33591); 125 to 250 µg/mL with C. albicans 10231; 16 to 32 µg/mL in the data set on Cr. Neoformans 32045. The substance also registered an HC50 at 24 h in “Red blood cell toxicity” greater than 500 µg/mL. In addition, the “% kill at 250 μg/ml” value in the data set with Red blood cells (RBC) is given as 7%. In addition, the “% kill at 500 μg/ml” value with HeLa cell line was 28.3%. The same substance had a TX50 in the data set on HeLa cell line of 359 µg/mL. Besides, the “ppm needed for 3.5 log kill at 15 min” value with P. aeruginosa ATCC 15442 and with Staph. aureus ATCC 6538 was greater than 500 ppm each time. Moreover, the “ppm needed for 3.5 log kill at 24 hr” value in the data set with P. aeruginosa ATCC 15442 came to 16 ppm; in the data set on Staph. aureus ATCC 6538 it was 250 ppm.
“LRLRLRLRLRLRLR [LR (7), LR LR LR LR LR LR LR]”: the IC50 is 15 µg/mL with E. coli ATCC 2592; 109 µg/mL in the data set on P. aeruginosa ATCC 10145; 90 µg/mL in [1] (setting [3]); 182 µg/mL in the data set on C. albicans 10231; 1.8 µg/mL in the data set with Cr. Neoformans 32045. Also, the MIC with E. coli ATCC 2592 is 31 to 62 µg/mL; against P. aeruginosa ATCC 10145, 125 µg/mL; in data set [1] (setting [3]), 250 to 500 µg/mL; against C. albicans 10231, 250 to 500 µg/mL; in the data set on Cr. Neoformans 32045, 4 to 8 µg/mL. Also, the HC50 at 24 h in the data set “Red blood cell toxicity” (setting [2]) was greater than 500 µg/mL. In addition, the “% kill at 250 μg/ml” value in the data set on Red blood cells (RBC) (RBCs, 250 μg/ml) is on record as 15%. Also, the “% kill at 500 μg/ml” value in the data set on HeLa cell line is 86.5%. In the data set with HeLa cell line, this substance had a TX50 greater than 500 µg/mL. Further, the entries for the “ppm needed for 3.5 log kill at 15 min” value in the data set with P. aeruginosa ATCC 15442 and in the data set with Staph. aureus ATCC 6538 were greater than 63 ppm and 31 ppm, respectively. Besides, the results for the “ppm needed for 3.5 log kill at 24 hr” value in the data set on P. aeruginosa ATCC 15442 and in the data set on Staph. aureus ATCC 6538 were 4 ppm and 7.8 ppm, respectively.
For “FKAFKAFKAFKAFKAFKA [FKA (6), FKA FKA FKA FKA FKA FKA]”, the IC50 was 29 µg/mL in the data set with E. coli ATCC 2592; 79 µg/mL in the data set on P. aeruginosa ATCC 10145; greater than 500 µg/mL in data set [1] (ATCC 33591); 208 µg/mL in the data set on C. albicans 10231; 2.8 µg/mL with Cr. Neoformans 32045. Further, the MIC in the data set on E. coli ATCC 2592 was 32 to 62 µg/mL; with P. aeruginosa ATCC 10145, 100 µg/mL; in [1] (ATCC 33591), greater than 500 µg/mL; against C. albicans 10231, 250 to 500 µg/mL; against Cr. Neoformans 32045, 4 to 8 µg/mL. Further, in the data set “Red blood cell toxicity” (setting [2]), the HC50 at 24 h worked out at 496 µg/mL. For the same substance, the “% kill at 250 μg/ml” value in the data set with Red blood cells (RBC) came to 28%. Also, in the data set with HeLa cell line, the “% kill at 500 μg/ml” value came out at 110.8%. This substance showed a TX50 in the data set with HeLa cell line greater than 500 µg/mL. Besides, the “ppm needed for 3.5 log kill at 15 min” value is 8 ppm in the data set with P. aeruginosa ATCC 15442 and 4 ppm in the data set on Staph. aureus ATCC 6538. Besides, the “ppm needed for 3.5 log kill at 24 hr” value with P. aeruginosa ATCC 15442 worked out at 8 ppm; in the data set with Staph. aureus ATCC 6538, 500 ppm.
